Source: PubChem BioAssay AID2060344 (Molecular Pharmacology Branch, DTP, NCI, 2025)
Several values for one entry are separate records, joined by “and”; a condition that tells them apart may be missing. Identical values can stand only once.

Test system: SK-MEL-2 multi-cell spheroids, viability
Assay: Anticancer human tumor SK-MEL-2 cell line growth inhibition [TAK];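 further: spheroids exposed to drugs for seven days before readout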;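 on viability, T/C: percent of DMSO vehicle control luminescence so 100% = untreated viability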
Conditions: for viability, T/C: stronger effect = lower value
From the text: Combinatorial screen of targeted agents with TAK-243 and ipatasertib in multi-cell type tumor spheroids
A high-throughput screen of multi-cell type tumor spheroids was designed to identify active combinations of targeted small molecules and TAK-243 or ipatasertib. Complex spheroids include a stromal component modeled by human endothelial cells (HUVEC) and fibroblasts modeled by human mesenchymal stem cells (MSCs). The concentration ranges selected for each drug and investigational agent were based upon clinically achievable concentrations if the clinical Cmax of the agent was known.
Compounds. The drugs and investigational agents: TAK-243 (785004), ipatasertib (767898), everolimus (733504), selumetinib (741078), bortezomib (756655), trametinib (758246), ixazomib (758254), vemurafenib (761431), dabrafenib (764134), sapanisertib (764658), alpelisib (765974), and copanlisib (816437), were obtained from the National Cancer Institute (NCI) Developmental Therapeutics Program Chemical Repository. The FDA-approved anticancer drug set is available from the NCI Developmental Therapeutics Program. […] The stock solutions were prepared in dimethyl sulfoxide (DMSO, Sigma-Aldrich, St. Louis, MO, cat. D2650) at 800-fold the tested concentration and stored at -70 degrees C prior to their use. All drugs and investigational agents were tested over a range starting from a high concentration at or near the clinical Cmax and decreasing in half-log increments. If the clinical Cmax for an agent had not been determined, the highest concentration tested was 10 microM.
NCI60 Cell Culture. NCI60 cell lines were obtained from the NCI Developmental Therapeutics Program Tumor Repository. For each lot of cells, the Repository performed Applied Biosystems AmpFLSTR Identifiler testing with PCR amplification to confirm consistency with the published Identifier STR profile for each cell line. Cells were kept in continuous culture for no more than 20 passages. The optimal seeding densities for each of the cell lines at each time point assessed were determined prior to performing the concentration response studies. Briefly, the NCI60 human tumor lines were grown as monolayers in RPMI 1640 medium supplemented with 10% FBS and 2 mmol/L L-glutamine.
An additional 2 lines were from the NCI60 cell line panel including melanomas, MALME-3M and SK-MEL-2. Pooled donor human umbilical vein endothelial cells (HUVEC, Lonza, cat. CC-2519) and human mesenchymal stem cells (hMSC, Lonza, cat. PT-2501) were purchased from Lonza (Walkersville, MD).
PDMR cell lines were grown in complete medium (DC medium): Dulbecco's modified Eagle's medium (DMEM)/F12 supplemented with 5% fetal bovine serum (FBS), 2 mM L-glutamine, 100 U/mL penicillin and 100 µg/ml streptomycin, 0.4 µg/ml hydrocortisone, 10 ng/ml epidermal growth factor (EGF) recombinant human protein, 24 µg/mL adenine, and 0.1 mg/mL primocin. During culture from frozen stock vials, PDMR cells were cultured in the same medium containing 10 µM Y-27632 (see Table 3). The PDCs were cultured in complete DMEM/F12 media without 10 microM Y-27632 dihydrochloride for at least two passages prior to the screen. The pooled donor HUVEC and hMSC were cultured in endothelial cell growth medium 2 (PromoCell, Heidelberg, Germany, cat. C-22011) and mesenchymal stem cell growth medium 2 (PromoCell, cat. C-28009), respectively. For all experiments, HUVEC and hMSC were used at passages </=5.
For the pre-screen, cell seeding densities were determined from a titration spanning the range from 5,000 to 313 cells per well. The mct-spheroids including 60% malignant cells, 25% HUVEC and 15% MSC dispensed as a mixture into U-bottom Ultra-Low Attachment 384-well plates (Corning, NY)
High-throughput Drug Combination Screening.
Prior to their inoculation into 384-well plates, malignant cells, HUVEC, and hMSC were removed from T flasks using TrypLE express (Thermo Fisher Scientific, cat. 12605036) and harvested by centrifugation for 5 min at 233 x g. […]

[1] = curve of first compound, second compound 0.3 µM
[2] = curve of first compound, second compound 0.949 µM
[3] = curve of first compound, second compound 3 µM
[4] = curve of first compound, second compound 9.49 µM
[5] = curve of first compound, second compound 30 µM

CC(C)CC(NC(=O)C(Cc1ccccc1)NC(=O)c1cnccn1)B(O)O (configuration not stated) + CC(C)NCC(C(=O)N1CCN(c2ncnc3c2C(C)CC3O)CC1)c1ccc(Cl)cc1
IC50 [1]: > 10 nM
IC50 [2]: > 10 nM
IC50 [3]: > 10 nM
IC50 [4]: 4.24 nM
IC50 [5]: 7.76 nM
viability, T/C (second compound 0.3 µM, first compound 31.6 pM): 116%
viability, T/C (second compound 0.3 µM, first compound 0.0001 µM): 110%
viability, T/C (second compound 0.3 µM, first compound 0.000316 µM): 104%
viability, T/C (second compound 0.3 µM, first compound 0.001 µM): 117%
viability, T/C (second compound 0.3 µM, first compound 0.00316 µM): 122%
viability, T/C (second compound 0.3 µM, first compound 0.01 µM): 103%
viability, T/C (second compound 0.949 µM, first compound 31.6 pM): 120%
viability, T/C (second compound 0.949 µM, first compound 0.0001 µM): 116%
viability, T/C (second compound 0.949 µM, first compound 0.000316 µM): 111%
viability, T/C (second compound 0.949 µM, first compound 0.001 µM): 119%
viability, T/C (second compound 0.949 µM, first compound 0.00316 µM): 111%
viability, T/C (second compound 0.949 µM, first compound 0.01 µM): 118%
viability, T/C (second compound 3 µM, first compound 31.6 pM): 119%
viability, T/C (second compound 3 µM, first compound 0.0001 µM): 117%
viability, T/C (second compound 3 µM, first compound 0.000316 µM): 98.7%
viability, T/C (second compound 3 µM, first compound 0.001 µM): 106%
viability, T/C (second compound 3 µM, first compound 0.00316 µM): 114%
viability, T/C (second compound 3 µM, first compound 0.01 µM): 114%
viability, T/C (second compound 9.49 µM, first compound 31.6 pM): 118%
viability, T/C (second compound 9.49 µM, first compound 0.0001 µM): 119%
viability, T/C (second compound 9.49 µM, first compound 0.000316 µM): 113%
viability, T/C (second compound 9.49 µM, first compound 0.001 µM): 109%
viability, T/C (second compound 9.49 µM, first compound 0.00316 µM): 62.5%
viability, T/C (second compound 9.49 µM, first compound 0.01 µM): 13.1%
viability, T/C (second compound 30 µM, first compound 31.6 pM): 115%
viability, T/C (second compound 30 µM, first compound 0.0001 µM): 123%
viability, T/C (second compound 30 µM, first compound 0.000316 µM): 111%
viability, T/C (second compound 30 µM, first compound 0.001 µM): 114%
viability, T/C (second compound 30 µM, first compound 0.00316 µM): 119%
viability, T/C (second compound 30 µM, first compound 0.01 µM): 31.2%

CC(C)n1nc(-c2ccc3oc(N)nc3c2)c2c(N)ncnc21
viability, T/C (compound 0.000316 µM): 109% and 105%
viability, T/C (compound 0.001 µM): 99.8% and 100%
viability, T/C (compound 0.00316 µM): 88.6% and 89.8%
viability, T/C (compound 0.01 µM): 86.9% and 76%
viability, T/C (compound 0.0316 µM): 52.2% and 55.5%
viability, T/C (compound 0.1 µM): 29.2% and 31.2%
IC50 (curve of compound): 41 nM and 41.1 nM

CC(=O)Nc1cccc(-n2c(=O)n(C3CC3)c(=O)c3c(Nc4ccc(I)cc4F)n(C)c(=O)c(C)c32)c1 + CC(C)NCC(C(=O)N1CCN(c2ncnc3c2C(C)CC3O)CC1)c1ccc(Cl)cc1
IC50 [1]: 0.203 nM
IC50 [2]: 0.15 nM
IC50 [3]: < 0.0949 nM
IC50 [4]: < 0.0949 nM
IC50 [5]: < 0.0949 nM
viability, T/C (second compound 0.3 µM, first compound 94.9 pM): 78.9%
viability, T/C (second compound 0.3 µM, first compound 0.0003 µM): 35.2%
viability, T/C (second compound 0.3 µM, first compound 0.000949 µM): 10.4%
viability, T/C (second compound 0.3 µM, first compound 0.003 µM): 5.62%
viability, T/C (second compound 0.3 µM, first compound 0.00949 µM): 2.19%
viability, T/C (second compound 0.3 µM, first compound 0.03 µM): 1.65%
viability, T/C (second compound 0.949 µM, first compound 94.9 pM): 63.2%
viability, T/C (second compound 0.949 µM, first compound 0.0003 µM): 29.8%
viability, T/C (second compound 0.949 µM, first compound 0.000949 µM): 10.2%
viability, T/C (second compound 0.949 µM, first compound 0.003 µM): 3.49%
viability, T/C (second compound 0.949 µM, first compound 0.00949 µM): 1.83%
viability, T/C (second compound 0.949 µM, first compound 0.03 µM): 1.53%
viability, T/C (second compound 3 µM, first compound 94.9 pM): 47%
viability, T/C (second compound 3 µM, first compound 0.0003 µM): 21%
viability, T/C (second compound 3 µM, first compound 0.000949 µM): 3.96%
viability, T/C (second compound 3 µM, first compound 0.003 µM): 2.14%
viability, T/C (second compound 3 µM, first compound 0.00949 µM): 1.28%
viability, T/C (second compound 3 µM, first compound 0.03 µM): 0.92%
viability, T/C (second compound 9.49 µM, first compound 94.9 pM): 39%
viability, T/C (second compound 9.49 µM, first compound 0.0003 µM): 19.2%
viability, T/C (second compound 9.49 µM, first compound 0.000949 µM): 5.57%
viability, T/C (second compound 9.49 µM, first compound 0.003 µM): 1.46%
viability, T/C (second compound 9.49 µM, first compound 0.00949 µM): 1.58%
viability, T/C (second compound 9.49 µM, first compound 0.03 µM): 0.65%
viability, T/C (second compound 30 µM, first compound 94.9 pM): 39.5%
viability, T/C (second compound 30 µM, first compound 0.0003 µM): 17.5%
viability, T/C (second compound 30 µM, first compound 0.000949 µM): 3.27%
viability, T/C (second compound 30 µM, first compound 0.003 µM): 1.19%
viability, T/C (second compound 30 µM, first compound 0.00949 µM): 0.56%
viability, T/C (second compound 30 µM, first compound 0.03 µM): 1.06%
